Six compounds from US20180072675A1, “ANTIMICROBIAL PYRIDINOHYDRAZIDE AND HYDRAZOMETHYLPYRIDINE-BASED AGENTS” (Board of Supervisors of Louisiana State University and …, priority 2015, published 2018) can be followed below.

≈ marks a conversion by molar mass, not a printed value. Entries after “also recorded” stand apart in the source; their conditions may differ. Like-named read-outs stand apart in the source and are kept apart here.

Data set [1] deals with C. albicans clinical isolate 17 (TW17). Kind of data set: MIC80 fungal growth inhibition, clinical isolate TW17. It is filed as cell-based, Candida albicans. The following applies: for MIC80: Candida albicans, read-out: MIC80 TW17. The essentials: (§1)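 Broth microdilution per CLSI M27-A3 in HEPES-buffered RPMI-1640, against C. albicans ATCC 10231, C. glabrata ATCC 48435 and azole-susceptible (TW1) and azole-resistant (TW17) clinical isolates from one AIDS patient. MIC80 read visually as lowest concentration inhibiting >80% growth versus 1% DMSO controls.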

The test system of the next data set is Hep G2 (liver) cells. Kind of data set: Mammalian cell toxicity, Promega CellTiter 96, liver cells. It is filed as cell-based. The following applies: 24 h. Here is the method:
Cytotoxicity was determined using non-cancerous Vero cells (kidney-african green monkey) and liver cells (Hep-2G) in accordance with Promega CellTiter 96 Non-Radioactive Cell Proliferation Assay (cat # G4000). Compounds were diluted in media and all assays were done in triplicate. Average values are presented, with ±SD. Cells were incubated in the presence of the compounds for 24 h at 37° C. and 5% CO2. Tetrazolium dye solution was added to each well and allowed to incubate for 1-4 h. Solubilization/Stop solution was added and allowed to sit at room temperature for 1 h. Formazan product was scored spectrophotometrically with an automatic plate reader set at 570 nm. Positive control wells for cell death were briefly treated with 0.1% saponin, immediately prior to the addition of dye solution. Wells containing 1% DMSO and no drug were used as a negative control and the average absorbance at 570 nm were set to 100%. The percent of cells viable were calculated as a ratio between the average absorption at 570 nm of the drug containing wells/average absorption at 570 nm of the control (no drug). Ratios were multiplied by 100 to give the values as a percentage as expressed on the y-axis.
Cytotoxicity studies were performed in accordance with Promega CellTiter 96 Non-RadioactivCell Proliferation Assay (cat #G4000). All cytotoxicity studies used a negative control (wells of either kidney or liver cells containing 1% DMSO but lacking the analog), a positive control (wells of either kidney or liver cells treated with the known cytotoxic agent, saponin) and the serial dilutions of the novel analogs. All control (negative) wells were normalized to 100% viable cells to accurately show the percentage of either liver or kidney cells that remained alive and viable following either overnight incubation with the analogs or 5-minute treatment with 0.1% saponin.

Data set [2] relates to Candida glabrata (ATCC Accession No. 48435). The experiment in a line: MIC80 fungal growth inhibition, C. glabrata ATCC 48435. It is filed as cell-based. The following applies: for MIC80: Nakaseomyces glabratus. The essentials:
as §1

The subject of the next data set is Candida strain TW17. Kind of data set: Time-kill assay. The format is cell-based, Candida albicans. The following applies: for Cidal vs Static: four times the MIC for TW17, 48 h; for colonies observed in time-kill assay: after 24 h. Here is the method:
FIG. 9 illustrates time-kill assays, for representative analogs that were active against the azole-resistant TW17, to determine the cidal or static nature of the analog tested. 100 μl of each sample was spread onto YM agar plates with a sterile bent spreading rod. Plates were incubated at 35° C. overnight and colonies were then counted on each plate.
One of the objectives of this study was to determine the cidal or static nature of the analogs that were active against such as TW17, the azole-resistant clinical isolate. Azoles affect Candida spp. by inhibiting ergosterol biosynthesis, and ultimately prevent their reproduction. This effect has led to the classification of azoles as fungistats. Determining the fungistatic or fungicidal nature of the synthesized compounds of the present disclosure allows a comparison to azoles, in addition to improving the understanding of how the structural motifs might lend toward an alternate mechanism of action. Therefore, time-kill assays were performed using the representative analogs that were active against the azole-resistant TW17 at concentrations at or below 8 μg/mL.
Solid drugs were dissolved in DMSO to a concentration of 10 mg/ml. This stock solution was then further diluted in water to the desired experimental concentration, determined to be four times that of the MIC for the Candida strain TW17 (as reported in the Tables).
Individual colonies of TW17 were suspended in 5 ml of sterile water and adjusted to achieve a McFarland reading between 0.08 and 0.12. The inoculum was then further diluted in sterile water at a ratio of 1:100. Three […] tissue culture tubes were prepared by combining 2.5 ml of above diluted inoculum, 21.7 ml of HEPES buffered RPMI-1640 media, and 800 μl of experimental drug dilution. A “Growth Control” tube was prepared by combining 2.5 ml of inoculum, 21.7 HEPES buffered RPMI-1640 media, and 800 μl of water-DMSO solution equal to the DMSO concentration of the experimental drug dilution. A “Sterile Control” tube was prepared by combining 24.2 ml of HEPES-buffered RPMI-1640 media and 800 μl of water-DMSO solution as in the “Growth Control”. All tubes were incubated for 48 hours at 35° C., 50 rpm. 500 μl samples were taken from the tubes at time points of predetermined intervals during this incubation.
Time points for the “Kill-Curve” and “Growth Control” tubes were taken at 0, 1, 2, 4, 6, 8, 24, and 48 h after the start of incubation. Time points for “Sterile Control” were taken at 0 and 48 hours. Each time point sample was serially diluted 1:10 in sterile 0.9% NaCl solution up to 5 times. 100 μl of each sample was spread onto YM agar plates with a sterile bent spreading rod. Plates were incubated at 35° C. overnight and colonies were then counted on each plate. Colonies on plates from diluted time points were used to estimate uncountable undiluted samples. The number of colonies in undiluted samples was estimated to be 10^n times greater than the diluted sample, where n was the number of dilutions made.

The next data set relates to Candida spp. Kind of data set: MIC studies, statements pooled over several isolates. It is filed as cell-based, Candida albicans, Candida glabrata. The following applies: for antifungal activity (in words): overall over the isolates tested. The method, then: The antifungal activity of the pyridinohydrazide and hydrazomethylpyridine derivatives described in the s were evaluated in vitro using Candida albicans (ATCC Accession No. 10231) and Candida glabrata (ATCC Accession No. 48435). In addition, the compounds were evaluated for activity against two previously-described clinical isolates of C. albicans known to have developed azole-resistance. These isolates were obtained over a two year period from a single AIDS patient and the development of the azole-resistance mechanisms have been extensively characterized (White T C. Antimicrob. Agents Chemother. (1997) 41: 1482-1487). MIC assays were performed on the clinical isolates 1 and 17 (annotated TW1 and TW17, respectively), where isolate 1 was used as an azole-susceptible control and isolate 17 was considered azole-resistant. All assays were done in accordance with NCCLS reference documents (Clinical Laboratory and Standards Institute. Reference method for Broth Dilution Antifungal Susceptibility Testing of Yeasts: Approved Standard. M27-A3 2010; 28). The results of these screenings are summarized in Tables 1-9 (Examples 20-27) as the minimum concentrations that inhibited more than 80% of fungal growth (MIC80) as compared to positive controls containing 1% DMSO. Assays were performed in HEPES-buffered RPMI-1640 media. All MIC screens used a visual scoring method as opposed to spectroscopic analysis, due to the altered absorbance spectra of many of the compounds.

Setting [3] is: Azole-resistant, >80% growth inhibition, visual scoring.
[4] abbreviates: ATCC48435, Azole-resistant, >80% growth inhibition, visual scoring, read-out: MIC80 C. glabrata ATCC No. 48435.

As to `Cc1ccc(O)c(/C=N/NC(=O)c2ccccn2)c1` [AR2, (E)-N′-(2-Hydroxy-5-methylbenzylidene)picolinohydrazide], the MIC80 amounted to 8 µg/mL (≈ 31.3 µM) in data set [1] (setting [3]) and 2 µg/mL (≈ 7.83 µM) in data set [2] (setting [4]). In addition, the cell toxicity result in the data set on Hep G2 (liver) cells (100× MIC) is given as “minimal toxicity”. Further, the “Cidal vs Static” value with Candida strain TW17 was “Static”.
For `O=C(NN=Cc1cc([N+](=O)[O-])ccc1O)c1cccnc1` [AR12], the “MIC80 TW17” value in data set [1] (setting [3]) was 8 µg/mL (≈ 27.9 µM). For the same compound, the “Cidal vs Static” value with Candida strain TW17 is recorded as “Static”. In addition, the “activity against azole-resistant isolates (in words)” value in the data set with Candida spp. (azole-resistant isolates) is “less active”.
Regarding `C(=N\Nc1ccccc1)/c1cccnc1` [AR44], the MIC80 is 8 µg/mL (≈ 40.6 µM) in data set [1] (setting [3]) and 16 µg/mL (≈ 81.1 µM) in data set [2] (setting [4]). Besides, the results for the cell toxicity result in the data set with Hep G2 (liver) cells (100× MIC) and in the data set on Hep G2 (liver) cells (through 10× MIC) were “toxic” and “no cell toxicity”, respectively. In the data set with Candida strain TW17, the “colonies observed in time-kill assay” value was “no observed colonies”. Besides, in the data set on Candida strain TW17, the “Cidal vs Static” value is given as “fungicidal; also recorded: Cidal”. Further, the “antifungal activity (in words)” value with Candida spp. is “moderate antifungal activity”.
Turning to `O=C(NN=Cc1cc([N+](=O)[O-])ccc1O)c1ccncc1` [AR18], the “MIC80 TW17” value in data set [1] (setting [3]) worked out at 8 µg/mL (≈ 27.9 µM). For the same compound, the values for the cell toxicity result in the data set with Hep G2 (liver) cells (100× MIC) and with Hep G2 (liver) cells (through 10× MIC) were “minimal cytotoxicity” and “not toxic”, respectively. Besides, the “MIC80 C. glabrata ATCC No. 48435” value in data set [2] (setting [3]) amounted to 31 µg/mL (≈ 108 µM). Further, the “Cidal vs Static” value in the data set with Candida strain TW17 is recorded as “Static”. Besides, in the data set on Candida spp., the “antifungal activity (in words)” value is given as “most potent”.
On to `O=C(N/N=C/c1cc(Br)ccc1O)c1ccc[n+]([O-])c1` [AR27], for which the MIC80 in data set [1] (setting [3]) came out at 8 µg/mL (≈ 23.8 µM); in data set [2] (setting [4]) it was 4 µg/mL (≈ 11.9 µM). Also, the cell toxicity entry in the data set with Hep G2 (liver) cells (5× MIC) is recorded as “cytotoxic”. The “Cidal vs Static” value in the data set on Candida strain TW17 is on record as “fungistatic; also recorded: Static”.
On to `C(=N\Nc1ccccc1)/c1ccncc1` [AR48], for which the MIC80 in data set [1] was 8 µg/mL (≈ 40.6 µM); in data set [2] (ATCC48435, read-out: MIC80 C. glabrata ATCC No. 48435) it was 4 µg/mL (≈ 20.3 µM). Moreover, the cell toxicity result in the data set on Hep G2 (liver) cells (100× MIC) is “toxic”; in the data set on Hep G2 (liver) cells (through 10× MIC), “no cell toxicity”. Moreover, in the data set on Candida strain TW17, the “colonies observed in time-kill assay” value was “no observed colonies”. In the data set on Candida strain TW17, the “Cidal vs Static” value is listed as “fungicidal; also recorded: Cidal”. Moreover, the “antifungal activity (in words)” value in the data set on Candida spp. is reported as “moderate antifungal activity”.

A word on the MIC80: it is an inhibitory concentration at the 80% level, which refers to growth in some studies and to a panel of isolates in others.
